Assay [1] has as its system rabbit infra-renal abdominal aorta, in-stent plaque. Briefly: Morphological analysis of intima/media ratios 28 days after in vivo stent implantation. The following applies: 28 days after stent implantation, mean ± SE. Also on record: species or system New Zealand White rabbits. The procedure:
Age-matched adult male New Zealand White rabbits weighing 3.8–4.2 kg were used in accordance to NIH and institutional guidelines (n=6 animals per group). Under general anesthesia, an arteriotomy at the femoral artery was performed and a 5 Fr introducing sheath was placed. Under fluoroscopic guidance, aseptically prepared channeled stents filled with blank or angiostatin microspheres were deployed in the infra-renal abdominal aorta. Stents were post-dilated at 8 atm with a 5 mm angioplasty balloon (Jupiter, Cordis, Miami, Fla.) to a final lumen size of 125% above the baseline with care taken to ensure that […] were present within the stent segment. Pre- and post-deployment digital subtraction angiograms were recorded for the blank procedural control and angiostatin treatment groups. The rabbits were fed a 0.25% cholesterol diet after the intervention. Early 7 day follow up (n=3 per group) or late 28 day follow-up (n=3 per group) animals underwent total-body perfusion-fixation as previously described with immediate excision of the aortic segment containing stent. The 7 day aortic specimens were excised longitudinally and stents were removed. The resulting aortic segments were divided into two equal subsegments. One subsegment of each underwent fixation in 10% neutral buffered formalin and embedded in paraffin for light microscopic and morphologic analysis. The remaining subsegment of each specimen was snap frozen for molecular assay. The 28 days aortic specimens were fixed in 10% neutral buffered formalin and were embedded in PolyBed (Polysciences, Warrington, Pa.) for light microscopic and morphologic analysis.
The seven day analysis consisted of thick (5 μm) cross sections of the aortic wall were obtained from the paraffin-embedded specimens (n=9 sections per group). An elastic von Gieson-Masson trichrome or Elastica van Gieson-Hematoxylin double stain was performed for light microscopic analysis. For the 28 day specimen analysis (n=3 animals per group), each plastic-embedded aorta with stents was cut into five pieces longitudinally equal lengths. These pieces were stained by modified Verhoff elastic staining. Five cross sectional images of the stained aorta were obtained (n=15 sections per group) from one side of plastic pieces. […] Using Image Pro Plus software (Media Cybernetics, Silver Spring, Md.), the cross-sectional area of the intima and the media were determined by blinded observers. The ratio of intima area to media area subsequently tabulated for each, with the results presented as Table 2. Mean, standard error, and significance were determined.

The test system is the same in assay [2]. Kind of assay: Local plaque stability parameters: macrophage infiltrate and endothelial density (CD31), 7 days. The assay is classed as in vivo, New Zealand White rabbits. The following applies: 7 days after stent implantation, stents releasing angiostatin, mean ± SE. The procedure:
Age-matched adult male New Zealand White rabbits weighing 3.8–4.2 kg were used in accordance to NIH and institutional guidelines (n=6 animals per group). Under general anesthesia, an arteriotomy at the femoral artery was performed and a 5 Fr introducing sheath was placed. Under fluoroscopic guidance, aseptically prepared channeled stents filled with blank or angiostatin microspheres were deployed in the infra-renal abdominal aorta. Stents were post-dilated at 8 atm with a 5 mm angioplasty balloon (Jupiter, Cordis, Miami, Fla.) to a final lumen size of 125% above the baseline with care taken to ensure that […] were present within the stent segment. Pre- and post-deployment digital subtraction angiograms were recorded for the blank procedural control and angiostatin treatment groups. The rabbits were fed a 0.25% cholesterol diet after the intervention. […]
Cross sections at the 7 day time point evaluated above were obtained (two per segment) from each vessel and incubated with a primary monoclonal antibody to rabbit macrophage (clone RAM-11, 1/800 dilution, DAKO, Carpinteria, Calif.). The number of positive cells per cross section was counted by a blinded observer. […] Mean and standard error were tabulated for each group with significance determined as before and p values as reported.

In the case of “FGF: acidic FGF (Calbiochem) with endotoxin-free heparin as a stabilizer”, the “Intima to media ratio” value in assay [1] (stents releasing acidic FGF (200 ng with 1280 units heparin as stabilizer), P = 0.004 vs. controls) came out at 1.634 ± 0.051.
With “TGFβ1: transforming growth factor β1 (Oncogene Research)”, in assay [1] (stents releasing TGFβ1 (2.0 μg loaded), P = 0.004 vs. controls), the “Intima to media ratio” value is on record as 1.803 ± 0.053.
Consider alpha-1-antitrypsin [AAT], for which, in assay [1] (stents releasing an elastase inhibitor (40 mg alpha-1-antitrypsin loaded), P = 0.0001 vs. controls), the “Intima to media ratio” value was 1.322 ± 0.060.
In the case of angiostatin, in assay [1] (stents releasing angiostatin (2.0 mg loaded in microspheres), P = 0.003 vs. controls), the “Intima to media ratio” value is listed as 1.610 ± 0.050. Besides, in assay [2], the “Macrophages (number of cross-sectional macrophages)” value is on record as 34.889 ± 3.948 P = 0.0011 cells per cross section. Moreover, the “CD31 (number of plaque microvessels)” value in assay [2] (P < 0.05 vs. controls) was 0.111 ± 0.111.

B1: Fas ligand: pro-apoptotic factor Fas ligand (Oncogene Research) (protein, UniProt P48023 130-281, looked up)
Tumor necrosis factor ligand …: QIGHPSPPPEKKELRKVAHLTGKSNSRSMPLEWEDTYGIVLLSGVKYKKGGLVINETGLYFVYSKVYFRGQSCNNLPLSHKVYMRNSKYPQDLVMMEGKMMSYCTTGQMWARSSYLGAVFNLTSADHLYVNVSELSLVNFEESQTFFGLYKL
For the molecule B1, the “Intima to media ratio” value in assay [1] (stents releasing Fas Ligand (10 μg loaded), P < 0.05 vs. controls) came out at 1.356 ± 0.053.

The values above are taken from US7056339B2, “Drug delivery platform” (The Board of Trustees of the Leland Stanford Junior …, priority 2001, dated 2006).
